A value given as a limit tells only on which side of the number the result lay.

What all share (assay type): functional, cell-based
One assay relates to SK-OV-3. The experiment in a line: Anticancer activity against human SKOV3 cells by SRB assay.
The test system of another assay is A549. The experiment in a line: Anticancer activity against human A549 cells by SRB assay.
The subject of another assay is SK-MEL-2. The experiment in a line: Anticancer activity against human SK-MEL-2 cells by SRB assay.
Another assay deals with BV-2. The experiment in a line: Antiinflammatory activity in mouse BV2 cells assessed as inhibition of lipopolysaccharide induced NO production.
Another assay concerns XF498. Description: Anticancer activity against human XF498 cells by SRB assay.

Turning to `COc1cc([C@@H]2OC[C@H]3[C@@H]2CO[C@H]3c2ccc(O)c(OC)c2)ccc1O` [(-)-PINORESINOL], the 50% inhibitory concentration (IC50) in the assay with SK-OV-3 was over 30 µM; in the assay with A549 it was over 30 µM; with SK-MEL-2 it was 26.6 µM; in the assay with BV-2 it was 26.2 µM; in the assay with XF498, 13.3 µM.

Consider `COc1ccc(C[C@H]2CO[C@H](c3ccc(OC)c(OC)c3)[C@H]2CO)cc1OC`, for which the IC50 with SK-OV-3 worked out at 21.5 µM; in the assay on A549 it was 20.1 µM; in the assay with SK-MEL-2 it was 25.1 µM; with BV-2, 44.4 µM; with XF498 it was 15.4 µM.

`COc1cc(/C=C/C=O)ccc1O` [CONIFERYL ALDEHYDE]: the IC50 is over 30 µM in the assay on SK-OV-3, 21.2 µM with A549, over 30 µM in the assay on SK-MEL-2 and over 30 µM in the assay with XF498.

`COc1cc([C@@H]2OC[C@@H]3[C@H]2CO[C@H]3c2cc(OC)c(O)c(OC)c2)cc(OC)c1O`: the half-inhibitory concentration (IC50) is over 30 µM in the assay on SK-OV-3; over 30 µM in the assay on A549; 14.5 µM in the assay on SK-MEL-2; 13.5 µM in the assay with BV-2; 8.82 µM in the assay on XF498.

As to `COc1cc([C@@H]2c3cc(O)c(OC)cc3C[C@H](CO)[C@H]2CO)ccc1O` [(-)-ISOLARICIRESINOL], the IC50 was over 30 µM with SK-OV-3; 20.2 µM in the assay with A549; 24.9 µM in the assay on SK-MEL-2; 152 µM in the assay with BV-2; 22.8 µM in the assay on XF498.

For the compound `COc1ccc([C@H](O)[C@@H](CO)Oc2c(OC)cc([C@@H]3Oc4c(OC)cc(CCCO)cc4[C@H]3CO)cc2OC)cc1OC` [BERBIKONOL], the IC50 was over 30 µM with SK-OV-3; over 30 µM in the assay with A549; 27.3 µM in the assay on SK-MEL-2; 90.9 µM in the assay with BV-2; 19.3 µM with XF498.

`COc1cc([C@H]2c3c(cc(OC)c(O)c3OC)C[C@@H](CO)[C@@H]2CO)cc(OC)c1O`: the 50% inhibitory concentration (IC50) was over 30 µM in the assay on SK-OV-3; over 30 µM in the assay with A549; over 30 µM with SK-MEL-2; 69.1 µM with BV-2; 7.14 µM in the assay with XF498.

`COc1cc([C@@H]2c3cc4c(cc3[C@@H](O[C@@H]3O[C@@H]5CO[C@@H](C)O[C@H]5[C@H](O)[C@H]3O)[C@H]3COC(=O)[C@H]23)OCO4)cc(OC)c1O` [ETOPOSIDE] displayed an IC50 in the assay with SK-OV-3 of 1.81 µM.

For the compound `COc1cc(C(=O)CCO)cc(OC)c1O`, the IC50 in the assay with SK-OV-3 was over 30 µM; in the assay with A549 it was over 30 µM; in the assay on SK-MEL-2, over 30 µM; with XF498, 24.3 µM.

Consider `COc1cc(C(=O)O)ccc1O` [VANILLIC ACID], for which the concentration for half-maximal inhibition (IC50) in the assay on SK-OV-3, in the assay with A549, with SK-MEL-2 and in the assay on XF498 was over 30 µM throughout.

`COc1cc(C[C@@H](CO)[C@H](CO)Cc2ccc(O)c(OC)c2)ccc1O` [(+)-SECOISOLARICIRESINOL]: the IC50 with SK-OV-3 was over 30 µM; in the assay with A549, over 30 µM; in the assay with SK-MEL-2, 21.5 µM; with BV-2, 87.6 µM; in the assay on XF498 it was 18.8 µM.

`COc1ccc(CC(=O)O)cc1`: the IC50 is over 30 µM with SK-OV-3, over 30 µM in the assay with A549, over 30 µM in the assay on SK-MEL-2 and 28.1 µM with XF498.

Take `COc1cc([C@@H](O)[C@@H](CO)Oc2ccc(CCCO)cc2OC)ccc1O`: the IC50 in the assay on SK-OV-3 was over 30 µM; in the assay on A549, over 30 µM; with SK-MEL-2, over 30 µM; in the assay with BV-2 it was 58.5 µM; in the assay on XF498 it was 26.6 µM.

Regarding `COc1cc(C[C@@H](CO)[C@](O)(CO)Cc2ccc(O)c(OC)c2)ccc1O`, the IC50 in the assay with SK-OV-3 is over 30 µM; in the assay with A549, over 30 µM; in the assay with SK-MEL-2, over 30 µM; with BV-2 it was 201 µM; in the assay on XF498 it was 27.6 µM.

For the compound `CNC(=N)NCCC[C@H](N)C(=O)O` [TILARGININE], in the assay with BV-2, the IC50 was 17.1 µM.

On to `COc1cc(C(=O)CCO)ccc1O`, for which the IC50 is over 30 µM with SK-OV-3, over 30 µM in the assay on A549, over 30 µM in the assay on SK-MEL-2 and 28.4 µM in the assay with XF498.

As for `COc1cc([C@@H]2OC[C@@H]3[C@H]2CO[C@H]3c2ccc(O[C@@H]3O[C@H](CO)[C@@H](O)[C@H](O)[C@H]3O)c(OC)c2)ccc1O`, the half-inhibitory concentration (IC50) in the assay with SK-OV-3 is over 30 µM; with A549 it was over 30 µM; with SK-MEL-2 it was over 30 µM; in the assay with BV-2, 144 µM; in the assay with XF498 it was 25.4 µM.

Consider `COc1cc([C@H]2Oc3c(OC)cc(CCCO)cc3[C@@H]2CO)ccc1O` [DIHYDRODEHYDRODICONIFERY ALCOHOL], for which the half-maximal inhibitory concentration (IC50) was over 30 µM with SK-OV-3; 22.4 µM with A549; 23.3 µM in the assay on SK-MEL-2; 28.8 µM in the assay with BV-2; 13.4 µM in the assay with XF498.

Take `COC(=O)[C@H](CO)c1cc(OC)c(O)c(OC)c1` [BERFUSSINOL]: the IC50 with SK-OV-3 is over 30 µM; in the assay with A549, over 30 µM; in the assay on SK-MEL-2, 27.2 µM; with XF498 it was over 30 µM.

For `COc1cc(C[C@H]2CO[C@H](c3ccc(O)c(OC)c3)[C@H]2CO)ccc1O` [LARICIRESINOL], the IC50 in the assay on SK-OV-3 was over 30 µM; with A549, 24.5 µM; with SK-MEL-2, over 30 µM; in the assay on BV-2, 51.8 µM; in the assay on XF498, 11.7 µM.

As to `COc1cc([C@@H]2c3c(cc(OC)c(O)c3OC)C[C@H](CO)[C@H]2CO)cc(OC)c1O`, the half-maximal inhibitory concentration (IC50) was over 30 µM in the assay on SK-OV-3; 21.2 µM in the assay with A549; over 30 µM in the assay on SK-MEL-2; 113 µM in the assay with BV-2; 26.5 µM in the assay on XF498.

`COc1cc(C[C@H]2COC(=O)[C@@H]2Cc2ccc(O)c(OC)c2)ccc1O` [MATAIRESINOL]: the IC50 is over 30 µM with SK-OV-3; 23.8 µM with A549; over 30 µM in the assay with SK-MEL-2; 94.5 µM in the assay on BV-2; 23.7 µM with XF498.

The values are drawn from ChEMBL document CHEMBL1759886, “Biological evaluation of phenolic constituents from the trunk of Berberis koreana” (Bioorg Med Chem Lett, 2011).
